Target: T1, Tyrosine-protein phosphatase non-receptor type 1 (Homo sapiens) (UniProt P18031)
T1 sequence (whole entry): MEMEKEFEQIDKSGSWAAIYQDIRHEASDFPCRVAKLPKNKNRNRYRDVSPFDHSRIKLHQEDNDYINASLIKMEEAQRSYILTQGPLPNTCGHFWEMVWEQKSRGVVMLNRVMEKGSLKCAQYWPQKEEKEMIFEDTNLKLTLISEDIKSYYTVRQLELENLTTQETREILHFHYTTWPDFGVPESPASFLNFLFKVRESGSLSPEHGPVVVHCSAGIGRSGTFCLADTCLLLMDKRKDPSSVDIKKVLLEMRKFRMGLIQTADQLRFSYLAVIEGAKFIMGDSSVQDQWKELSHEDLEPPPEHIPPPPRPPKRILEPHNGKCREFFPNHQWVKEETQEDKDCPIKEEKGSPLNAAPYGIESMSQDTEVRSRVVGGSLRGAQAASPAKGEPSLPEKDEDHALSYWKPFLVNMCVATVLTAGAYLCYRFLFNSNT
Experiment: Binding affinity for protein tyrosine phosphatase 1B

Affinity: 86 µM
Structure (SMILES): NCc1ccc(NC(=O)C(=O)O)cc1

— ChEMBL document CHEMBL1141172, “Fragment-based lead discovery using X-ray crystallography” (J Med Chem, 2005)
